Data: patent US20250034110A1, “LPAR1 ANTAGONISTS AND USES THEREOF” (Pipeline Therapeutics, Inc., priority 2021, published 2025)
Where two headings read alike, the source gives them in different places.

Biological target: human LPAR1 (Homo sapiens, UniProt Q92633)
Experiment: In vitro functional assay of lysophosphatidic acid receptor 1 activity (calcium flux)
Format: cell-based
[1] = B103 cells stably expressing human LPAR1, calcium flux (Fluo-4 NW) after lysophosphatidic acid (18:1) at EC80, 100 pM to 10 μM, read-out: LPAR1 IC50

Sequence of human LPAR1 (Q92633 whole entry): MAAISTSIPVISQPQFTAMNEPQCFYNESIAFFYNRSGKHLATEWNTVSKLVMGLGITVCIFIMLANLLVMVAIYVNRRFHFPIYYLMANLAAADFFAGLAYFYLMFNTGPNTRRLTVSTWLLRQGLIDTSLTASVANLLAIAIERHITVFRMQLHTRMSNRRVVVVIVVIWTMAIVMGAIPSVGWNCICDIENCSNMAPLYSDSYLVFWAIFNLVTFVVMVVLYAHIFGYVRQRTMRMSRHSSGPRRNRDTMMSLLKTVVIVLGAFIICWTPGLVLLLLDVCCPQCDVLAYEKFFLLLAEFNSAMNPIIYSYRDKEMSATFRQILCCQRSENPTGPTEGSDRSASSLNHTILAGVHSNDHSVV

Row | SMILES | IC50 [1] | IC50 (LPAR1 IC50)
1 | CC(=O)N1CC[C@H]1CN(C(=O)Nc1ccc(C)nc1OC(F)F)c1ccccc1C(C)C [Example 72, (S)-1-((1-acetylazetidin-2-yl)methyl)-3-(2-(difluoromethoxy)-6-methylpyridin-3-yl)-1-(2-isopropylphenyl)urea] | 100 to 1000 nM | 
2 | Cc1ccc(NC(=O)N(c2ccccc2C(C)C)C2CCN(S(C)(=O)=O)CC2)c(OC(F)F)n1 [Example 73, 3-(2-(difluoromethoxy)-6-methylpyridin-3-yl)-1-(2-isopropylphenyl)-1-(1-(methylsulfonyl)piperidin-4-yl)urea] |  | < 10 nM
3 | Cc1ccc(NC(=O)N(c2ccccc2C(C)C)C2CN(S(C)(=O)=O)C2)c(OC(F)F)n1 [Example 74, 3-(2-(difluoromethoxy)-6-methylpyridin-3-yl)-1-(2-isopropylphenyl)-1-(1-(methylsulfonyl)azetidin-3-yl)urea] | 100 to 1000 nM | 
4 | Cc1ccc(NC(=O)N(c2ccccc2C(C)C)[C@H]2CCN(S(C)(=O)=O)C2)c(OC(F)F)n1 [Example 75, (S)-3-(2-(difluoromethoxy)-6-methylpyridin-3-yl)-1-(2-isopropylphenyl)-1-(1-(methylsulfonyl)pyrrolidin-3-yl)urea] | 10 to 100 nM | 
5 | Cc1ccc(NC(=O)N(c2ccccc2C(C)C)C2CC3(C2)CN(S(C)(=O)=O)C3)c(OC(F)F)n1 [Example 76, 3-(2-(difluoromethoxy)-6-methylpyridin-3-yl)-1-(2-isopropylphenyl)-1-(2-(methylsulfonyl)-2-azaspiro[3.3]heptan-6-yl)urea] | 100 to 1000 nM | 
6 | COC(=O)N1CC(N(C(=O)Nc2ccc(C)nc2OC(F)F)c2ccccc2C(C)C)C1 [Example 77, methyl 3-(3-(2-(difluoromethoxy)-6-methylpyridin-3-yl)-l-(2-isopropylphenyl)ureido)azetidine-1-carboxylate] | 10 to 100 nM | 
7 | CCOC(=O)N1CC(N(C(=O)Nc2ccc(C)nc2OC(F)F)c2ccccc2C(C)C)C1 [Example 78, ethyl 3-(3-(2-(difluoromethoxy)-6-methylpyridin-3-yl)-1-(2-isopropylphenyl)ureido)azetidine-1-carboxylate] | 10 to 100 nM | 
8 | Cc1ccc(NC(=O)N(c2ccccc2C(C)C)C2CCN(C(=O)Cn3nccn3)CC2)c(OC(F)F)n1 [Example 79, 1-(1-(2-(2H-1,2,3-triazol-2-yl)acetyl)piperidin-4-yl)-3-(2-(difluoromethoxy)-6-methylpyridin-3-yl)-1-(2-isopropylphenyl)urea] |  | < 10 nM
9 | Cc1ccc(NC(=O)N(c2ccccc2C(C)C)C2CN(C(=O)Cn3nccn3)C2)c(OC(F)F)n1 [Example 80, 1-(1-(2-(2H-1,2,3-triazol-2-yl)acetyl)azetidin-3-yl)-3-(2-(difluoromethoxy)-6-methylpyridin-3-yl)-1-(2-isopropylphenyl)urea] | 100 to 1000 nM | 
10 | Cc1ccc(NC(=O)N(c2ccccc2C(C)C)C2CN(C(=O)CC#N)C2)c(OC(F)F)n1 [Example 81, 1-(1-(2-cyanoacetyl)azetidin-3-yl)-3-(2-(difluoromethoxy)-6-methylpyridin-3-yl)-1-(2-isopropylphenyl)urea] | 10 to 100 nM | 
11 | COCC(=O)N1CC(N(C(=O)Nc2ccc(C)nc2OC(F)F)c2ccccc2C(C)C)C1 [Example 82, 3-(2-(difluoromethoxy)-6-methylpyridin-3-yl)-1-(2-isopropylphenyl)-1-(1-(2-methoxyacetyl)azetidin-3-yl)urea] | 10 to 100 nM | 
12 | Cc1ccc(NC(=O)N(c2ccccc2C(C)C)[C@H]2CCN(C(=O)Cn3nccn3)C2)c(OC(F)F)n1 [Example 83, (S)-1-(1-(2-(2H-1,2,3-triazol-2-yl)acetyl)pyrrolidin-3-yl)-3-(2-(difluoromethoxy)-6-methylpyridin-3-yl)-1-(2-isopropylphenyl)urea] | 100 to 1000 nM | 
13 | Cc1ccc(NC(=O)N(c2ccccc2C(C)C)C2CC3(C2)CN(C(=O)Cn2nccn2)C3)c(OC(F)F)n1 [Example 84, 1-(2-(2-(2H-1,2,3-triazol-2-yl)acetyl)-2-azaspiro[3.3]heptan-6-yl)-3-(2-(difluoromethoxy)-6-methylpyridin-3-yl)-1-(2-isopropylphenyl)urea] | 100 to 1000 nM | 
14 | COc1ccc(NC(=O)N(c2ccccc2C(C)C)C2CCN(C(=O)CC#N)CC2)c(OC(F)F)n1 [Example 85, 1-(1-(2-cyanoacetyl)piperidin-4-yl)-3-(2-(difluoromethoxy)-6-methoxypyridin-3-yl)-1-(2-isopropylphenyl)urea] |  | 10 to 100 nM
15 | COc1ccc(NC(=O)N(c2ccccc2C(C)C)C2CCN(C(C)=O)CC2)c(OC(F)F)n1 [Example 86, 1-(1-acetylpiperidin-4-yl)-3-(2-(difluoromethoxy)-6-methoxypyridin-3-yl)-1-(2-isopropylphenyl)urea] |  | 10 to 100 nM
16 | CC(=O)N1CCC(N(C(=O)Nc2ccc(C(F)(F)F)nc2C)c2ccccc2C(C)C)CC1 [Example 88] |  | > 1000 nM

Row | SMILES | IC50 [1] | IC50 (LPAR1 IC50)
17 | CC(=O)N1CCC(N(C(=O)Nc2cccnc2OC(F)F)c2ccccc2C(C)C)CC1 [Example 91] |  | 10 to 100 nM
18 | CC(=O)N1CCC(N(C(=O)Nc2ccc(C)nc2OCC(F)(F)F)c2ccccc2C(C)C)CC1 [Example 104] |  | 100 to 1000 nM
19 | CCOc1nc(C)ccc1NC(=O)N(c1ccccc1C(C)C)C1CCN(C(C)=O)CC1 [Example 105] |  | 100 to 1000 nM
20 | COc1ccc(NC(=O)N(c2ccccc2C(C)C)C2CCN(C(C)=O)CC2)c(OCC(F)F)n1 [Example 106] |  | 10 to 100 nM
21 | CCOc1ccc(NC(=O)N(c2ccccc2C(C)C)C2CCN(C(C)=O)CC2)c(OC(F)F)n1 [Example 107] |  | 10 to 100 nM
22 | CC(=O)N1CCC(N(C(=O)Nc2ccc(OC(F)F)nc2Cl)c2ccccc2C(C)C)CC1 [Example 108] |  | 100 to 1000 nM
23 | COc1nc(C(F)F)ccc1NC(=O)N(c1ccccc1C(C)C)C1CCN(C(C)=O)CC1 [Example 113] |  | 10 to 100 nM
24 | CC(=O)N1CCC(N(C(=O)Nc2ccc(C(F)F)nc2OC(F)F)c2ccccc2C(C)C)CC1 [Example 115] |  | 10 to 100 nM
25 | CC(=O)N1CC(N(C(=O)Nc2ccc(C)cc2OC(F)F)c2ccccc2C(C)C)C1 [Example 117, 1-(1-acetylazetidin-3-yl)-3-(2-(difluoromethoxy)-4-methylphenyl)-1-(2-isopropylphenyl)urea] | 10 to 100 nM | 
26 | COc1ccc(NC(=O)N(c2ccccc2C(C)C)C2CN(C(C)=O)C2)c(OC)n1 [Example 118] | 100 to 1000 nM | 
27 | COc1ccc(NC(=O)N(c2ccccc2C(C)C)C2CN(C(C)=O)C2)c(OC)c1C [Example 119] | 100 to 1000 nM | 
28 | CC(=O)N1CC(N(C(=O)Nc2ncc(Cl)cc2OC(F)F)c2ccccc2C(C)C)C1 [Example 120] | 100 to 1000 nM | 
29 | CC(=O)N1CC2(CC(N(C(=O)Nc3ncc(Br)cc3OC(F)F)c3ccccc3C(C)C)C2)C1 [Example 123, 1-(2-acetyl-2-azaspiro[3.3]heptan-6-yl)-3-(5-bromo-3-(difluoromethoxy)pyridin-2-yl)-1-(2-isopropylphenyl)urea] | 100 to 1000 nM | 
30 | CC(=O)N1CC2(CC(N(C(=O)Nc3ncc(Cl)cc3OC(F)F)c3ccccc3C(C)C)C2)C1 [Example 124] | 100 to 1000 nM | 
31 | CC(=O)N1CC2(CC(N(C(=O)Nc3ccc(C)cc3OC(F)F)c3ccccc3C(C)C)C2)C1 [Example 125, 1-(2-acetyl-2-azaspiro[3.3]heptan-6-yl)-3-(2-(difluoromethoxy)-4-methylphenyl)-1-(2-isopropylphenyl)urea] | 10 to 100 nM | 
32 | Cc1ccc(NC(=O)N(c2ccccc2C(C)C)C2CC3(C2)CN(C(=O)NC2CC2)C3)c(OC(F)F)c1 [Example 126] | 10 to 100 nM | 
